# Test results: patent US6642256B2, “Piperidine derivatives as subtype selective N-Methyl-D-Aspartate antagonists” (Warner-Lambert Company LLC, priority 2000, dated 2003)
# What was measured:
# [1] = tested on: 6-Hydroxydopamine-lesioned rats; assay: 6-OHDA lesioned rat assay (potentiation of L-DOPA-induced contraversive rotation); type: in vivo; conditions: Table 1; po; statistically significant increase in contraversive rotations versus L-DOPA alone (L-DOPA methyl ester 10 mg/kg SC)
# From the text: b. The 6-OHDA Lesioned Rat Assay (6-OHDA):
# The 6-OHDA model is used to test compounds of the invention for anti-Parkinsonism activity.
# (i) 6-OHDA lesioned rat assay protocol:
# 6-Hydroxydopamine-lesioned rats were used (see Ungerstedt U, Arbuthnott G W: “Quantitative recording of rotational behavior in rats after 6-hydroxy-dopamine lesions of the nigrostraiatal dopamine system”, Brain Res., 1971;24(3):485-493). Adult male Sprague-Dawley rats were anesthetized with chloral hydrate, and unilateral lesions of the nigrostriatal dopamine system were accomplished by infusion of 8 μg of 6-hydroxydopamine HBr (6-OHDA) into the right medial forebrain bundle. Rats were pretreated 30 minutes before surgery with desipramine HCl 25 mg/kg intraperitoneally (IP) to protect noradrenergic neurons, and pargyline 25 mg/kg IP to potentiate the effects of 6-OHDA. A minimum of 3 weeks after surgery, the rotational behavior induced by apomorphine HCL 50 μg/kg administered subcutaneously (SC) was assessed.
# (ii) Measurement of animal behavior:
# Rotational behavior was measured using an automatic rotometer system (Rotorat Rotational Activity System, MED Associates, Georgia, Vt.). Antiparkinsonian activity was assessed as the ability of the invention compounds to potentiate the contraversive rotation induced by L-DOPA methyl ester, dosed at 10 mg/kg SC, over a 6-hour period. […]
# [2] = tested on: Male Wistar albino rats; assay: Formalin footpad test (FT); type: in vivo, rat; conditions: Table 1; PO; statistically significant decrease in late-phase pain behaviour versus vehicle
# Protocol: a. The Formalin Footpad Test (FT):
# The FT model was used to test invention compounds for pain alleviating properties. The model produces a biphasic response in a test animal that results from a change in pain intensity over time. The FT model utilizes an injection of dilute formalin into the hindpaw of a rodent, which produces high intensity acute pain behaviors which are measured for the first 10 minutes post formalin injection (early phase responding). High intensity acute pain behaviors include rapid licking or biting of the injected hindpaw. The second phase is a prolonged period of lower intensity pain behaviors (late phase responding) which are measured from 11 to 45 minutes post-formalin injection.
# Male Wistar albino rats (Harlan Sprague-Dawley Labs), weighing approximately 100 g at the time of testing, were used. Animals were group-housed and acclimated to the housing facility for 1 week prior to testing. Animals were maintained on a 12-hour/12-hour light/dark cycle and fed block rodent chow. From 4 to 8 animals were randomly assigned to either a vehicle-only dose group or a vehicle-plus invention compound treatment group on the day of testing.
# The testing apparatus was a 16″×8″ box divided into two 8″×8″ testing chambers. Each testing chamber comprised a floor and 3 walls made of clear plastic mirrors, and a fourth wall which was clear plastic that allowed observation of animal behavior. The top of each chamber was covered with a metal screen during testing to prevent animals from climbing out of the chamber. Two animals were tested simultaneously in the adjoining boxes, but animals were unable to observe one another.
# Animals were weighed and placed into holding cages (2 animals per cage) in the testing room prior to dosing. Following approximately 30 minutes of acclimation to the testing room, each pair of animals was administered orally (PO) by gavage a mixture of invention compound plus vehicle or vehicle alone. The treated animals were then placed in individual test chambers and allowed to acclimate to the chambers for at least 20 minutes. Then 50 μL of a 2.5% solution of formalin in vehicle was injected subcutaneously (SC) in the plantar surface of the left hindpaw from 30 to 120 minutes after administration of the invention compound. A session timer was started following the formalin injection, and the amount of time the animal spent licking or biting the injected paw was clocked with a hand-held stopwatch. The cumulative time spent engaging in a pain response was manually recorded at 5-minute intervals for 45 minutes post formalin injection. Early phase responding included Minutes 0 to 10, and late phase responding included Minutes 11 to 45. At the end of the testing period, animals were sacrificed using carbon dioxide. […]
Structure (SMILES),"6-OHDA (mg/kg), minimum effective dose (MED) [1]","FT (mg/kg), active dose [2] [mg/kg]"
"O=c1[nH]c2ccc(C3=NOC(CN4CCC(Cc5ccccc5)CC4)C3)cc2o1 (racemic) [Example 1, 6-[5-(4-Benzylpiperidin-1-ylmethyl)-4,5-dihydroisoxazol-3-yl]-3H-benzoxazol-2-one]",>10 (po) mg/kg,>10
"O=c1[nH]c2ccc(C3=NOC(CN4CCC(Cc5ccc(F)cc5)CC4)C3)cc2o1 (single isomer, unassigned; (-)) [Example 4b, (−)-6-{5-[4-(4-Fluorobenzyl)piperidin-1-ylmethyl]4,5-dihydroisoxazol-3-yl}-3H-benzoxazol-2-one]",>30 (po) mg/kg,>30
